According to the supplement of paper PMC10733146:

Legend:
Assay in all cases: viability relative to DMSO control (fraction); higher = less drug effect (more viable cells)
Conditions in all cases: 48 h
Pomalidomide = compound: Nc1cccc2c1C(=O)N(C1CCC(=O)NC1=O)C2=O [Pomalidomide]
Outline: (§1)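 The cells were primary mononuclear tumour cells, either fresh or cryopreserved, isolated by Ficoll from blood or bone marrow or derived from processed lymph node. Each well of a 384-well plate received 4 × 10^4 cells onto compounds pre-plated at five concentrations, with one well per concentration. The medium was RPMI-1640 with penicillin/streptomycin, L-glutamine and human serum, and plates stood at 37 °C and 5% CO2 for 48 h. Viability is reported as CellTiter-Glo luminescence relative to the median of 16 inner DMSO wells.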

Chlorambucil = compound: O=C(O)CCCc1ccc(N(CCCl)CCCl)cc1 [Chlorambucil]
Outline: as §1

Filgotinib = compound: O=C(Nc1nc2cccc(-c3ccc(CN4CCS(=O)(=O)CC4)cc3)n2n1)C1CC1 [Filgotinib]
Outline: as §1

[1] = compound: C[C@H](NC(=O)CCC(F)(F)F)C(=O)N[C@@H]1C(=O)N(CCO)c2ncccc2-c2ccccc21
Outline: as §1

[2] = compound: O=C(Nc1ccc2[nH]nc(-c3ccncc3)c2c1)[C@@H]1CCN(CC(=O)N2CCN(c3ccc(-c4ncccn4)cc3)CC2)C1
Outline: as §1

Thalidomide = compound: O=C1CCC(N2C(=O)c3ccccc3C2=O)C(=O)N1 [Thalidomide]
Outline: as §1

Navitoclax = compound: CC1(C)CCC(c2ccc(Cl)cc2)=C(CN2CCN(c3ccc(C(=O)NS(=O)(=O)c4ccc(N[C@H](CCN5CCOCC5)CSc5ccccc5)c(S(=O)(=O)C(F)(F)F)c4)cc3)CC2)C1 [Navitoclax]
Outline: as §1

[3] = compound: C[C@H]1C[C@@H](n2c(Nc3ccc(OC(F)(F)F)cc3)nc3cc(CCC(=O)O)ccc32)CC(C)(C)C1
Outline: as §1

I-BET-762 = compound: CCNC(=O)C[C@@H]1N=C(c2ccc(Cl)cc2)c2cc(OC)ccc2-n2c(C)nnc21 [I-BET-762]
Outline: as §1

Idasanutlin (RS7388) = compound: COc1cc(C(=O)O)ccc1NC(=O)[C@@H]1N[C@@H](CC(C)(C)C)[C@](C#N)(c2ccc(Cl)cc2F)[C@H]1c1cccc(Cl)c1F [Idasanutlin (RS7388)]
Outline: as §1

Duvelisib = compound: C[C@H](Nc1ncnc2nc[nH]c12)c1cc2cccc(Cl)c2c(=O)n1-c1ccccc1 [Duvelisib]
Outline: as §1

[4] = compound: CCc1ccc(/C=C2/SC(=S)NC2=O)cc1
Outline: as §1

Vindesine = compound: CC[C@]1(O)C[C@@H]2CN(CCc3c([nH]c4ccccc34)[C@@](C(=O)OC)(c3cc4c(cc3OC)N(C)[C@H]3[C@@](O)(C(N)=O)[C@H](O)[C@]5(CC)C=CCN6CC[C@]43[C@@H]65)C2)C1 [Vindesine]
Outline: as §1

[5] = compound: O=C(NO)c1cccc(C(=O)NCCc2ccccc2)c1
Outline: as §1

Venetoclax = compound: CC1(C)CCC(CN2CCN(c3ccc(C(=O)NS(=O)(=O)c4ccc(NCC5CCOCC5)c([N+](=O)[O-])c4)c(Oc4cnc5[nH]ccc5c4)c3)CC2)=C(c2ccc(Cl)cc2)C1 [Venetoclax]
Outline: as §1

primary AML patient cells (S019)
viability (Pomalidomide; 0.0032 µM): 1.03
viability (Pomalidomide; 0.016 µM): 1.21
viability (Pomalidomide; 0.08 µM): 1.08
viability (Pomalidomide; 0.4 µM): 0.963
viability (Pomalidomide; 2 µM): 1.08
viability (Chlorambucil; 0.032 µM): 0.909
viability (Chlorambucil; 0.16 µM): 0.911
viability (Chlorambucil; 0.8 µM): 0.938
viability (Chlorambucil; 4 µM): 0.9
viability (Chlorambucil; 20 µM): 0.427
viability (Filgotinib; 0.024 µM): 0.986
viability (Filgotinib; 0.12 µM): 1.01
viability (Filgotinib; 0.6 µM): 0.909
viability (Filgotinib; 3 µM): 0.847
viability (Filgotinib; 15 µM): 0.608
viability ([1]; 0.016 µM): 1.32
viability ([1]; 0.08 µM): 1.33
viability ([1]; 0.4 µM): 1.16
viability ([1]; 2 µM): 1.24
viability ([1]; 10 µM): 1.05
viability ([2]; 0.008 µM): 0.96
viability ([2]; 0.04 µM): 0.96
viability ([2]; 0.2 µM): 0.92
viability ([2]; 1 µM): 0.863
viability ([2]; 5 µM): 0.815
viability (Thalidomide; 0.032 µM): 0.924
viability (Thalidomide; 0.16 µM): 0.844
viability (Thalidomide; 0.8 µM): 0.884
viability (Thalidomide; 4 µM): 0.938
viability (Thalidomide; 20 µM): 0.903
viability (Navitoclax; 0.0032 µM): 1.04
viability (Navitoclax; 0.016 µM): 1.02
viability (Navitoclax; 0.08 µM): 0.665
viability (Navitoclax; 0.4 µM): 0.257
viability (Navitoclax; 2 µM): 0.153
viability ([3]; 0.024 µM): 0.782
viability ([3]; 0.12 µM): 1.39
viability ([3]; 0.6 µM): 1.15
viability ([3]; 3 µM): 0.854
viability ([3]; 15 µM): 1.11
viability (I-BET-762; 0.008 µM): 1
viability (I-BET-762; 0.04 µM): 0.964
viability (I-BET-762; 0.2 µM): 0.879
viability (I-BET-762; 1 µM): 0.929
viability (I-BET-762; 5 µM): 0.793
viability (Idasanutlin (RS7388); 0.032 µM): 0.481
viability (Idasanutlin (RS7388); 0.16 µM): 0.976
viability (Idasanutlin (RS7388); 0.8 µM): 0.457
viability (Idasanutlin (RS7388); 4 µM): 0.18
viability (Idasanutlin (RS7388); 20 µM): 0.323
viability (Duvelisib; 0.0016 µM): 1.04
viability (Duvelisib; 0.008 µM): 1.1
viability (Duvelisib; 0.04 µM): 1.1
viability (Duvelisib; 0.2 µM): 1.19
viability (Duvelisib; 1 µM): 0.993
viability ([4]; 0.024 µM): 0.959
viability ([4]; 0.12 µM): 0.973
viability ([4]; 0.6 µM): 1.08
viability ([4]; 3 µM): 1.01
viability ([4]; 15 µM): 0.996
viability (Vindesine; 0.016 µM): 1.1
viability (Vindesine; 0.08 µM): 0.956
viability (Vindesine; 0.4 µM): 1.02
viability (Vindesine; 2 µM): 0.803
viability (Vindesine; 10 µM): 0.717
viability ([5]; 0.024 µM): 1.04
viability ([5]; 0.12 µM): 1.03
viability ([5]; 0.6 µM): 0.977
viability ([5]; 3 µM): 0.995
viability ([5]; 15 µM): 1.05
viability (Venetoclax; 0.00064 µM): 1.13
viability (Venetoclax; 0.0032 µM): 0.91
viability (Venetoclax; 0.016 µM): 0.566
viability (Venetoclax; 0.08 µM): 0.342
viability (Venetoclax; 0.4 µM): 0.261

primary ALL patient cells (S088)
viability (Pomalidomide; 0.0032 µM): 0.934
viability (Pomalidomide; 0.016 µM): 1.08
viability (Pomalidomide; 0.08 µM): 1.15
viability (Pomalidomide; 0.4 µM): 1.05
viability (Pomalidomide; 2 µM): 1.1
viability (Chlorambucil; 0.032 µM): 1.02
viability (Chlorambucil; 0.16 µM): 1
viability (Chlorambucil; 0.8 µM): 0.981
viability (Chlorambucil; 4 µM): 0.71
viability (Chlorambucil; 20 µM): 0.267
viability (Filgotinib; 0.024 µM): 0.831
viability (Filgotinib; 0.12 µM): 0.961
viability (Filgotinib; 0.6 µM): 0.825
viability (Filgotinib; 3 µM): 0.893
viability (Filgotinib; 15 µM): 0.751
viability ([1]; 0.016 µM): 1.08
viability ([1]; 0.08 µM): 1.11
viability ([1]; 0.4 µM): 1.08
viability ([1]; 2 µM): 1.09
viability ([1]; 10 µM): 1.05
viability ([2]; 0.008 µM): 0.545
viability ([2]; 0.04 µM): 0.445
viability ([2]; 0.2 µM): 0.393
viability ([2]; 1 µM): 0.341
viability ([2]; 5 µM): 0.297
viability (Thalidomide; 0.032 µM): 0.94
viability (Thalidomide; 0.16 µM): 0.902
viability (Thalidomide; 0.8 µM): 0.832
viability (Thalidomide; 4 µM): 0.917
viability (Thalidomide; 20 µM): 0.962
viability (Navitoclax; 0.0032 µM): 1.01
viability (Navitoclax; 0.016 µM): 0.751
viability (Navitoclax; 0.08 µM): 0.386
viability (Navitoclax; 0.4 µM): 0.189
viability (Navitoclax; 2 µM): 0.106
viability ([3]; 0.024 µM): 0.471
viability ([3]; 0.12 µM): 0.597
viability ([3]; 0.6 µM): 0.43
viability ([3]; 3 µM): 0.548
viability ([3]; 15 µM): 0.573
viability (I-BET-762; 0.008 µM): 0.856
viability (I-BET-762; 0.04 µM): 0.906
viability (I-BET-762; 0.2 µM): 0.857
viability (I-BET-762; 1 µM): 0.522
viability (I-BET-762; 5 µM): 0.444
viability (Idasanutlin (RS7388); 0.032 µM): 0.557
viability (Idasanutlin (RS7388); 0.16 µM): 0.423
viability (Idasanutlin (RS7388); 0.8 µM): 0.286
viability (Idasanutlin (RS7388); 4 µM): 0.155
viability (Idasanutlin (RS7388); 20 µM): 0.132
viability (Duvelisib; 0.0016 µM): 0.927
viability (Duvelisib; 0.008 µM): 0.988
viability (Duvelisib; 0.04 µM): 0.879
viability (Duvelisib; 0.2 µM): 0.85
viability (Duvelisib; 1 µM): 0.691
viability ([4]; 0.024 µM): 0.202
viability ([4]; 0.12 µM): 0.324
viability ([4]; 0.6 µM): 0.591
viability ([4]; 3 µM): 0.593
viability ([4]; 15 µM): 0.571
viability (Vindesine; 0.016 µM): 0.633
viability (Vindesine; 0.08 µM): 0.464
viability (Vindesine; 0.4 µM): 0.37
viability (Vindesine; 2 µM): 0.317
viability (Vindesine; 10 µM): 0.255
viability ([5]; 0.024 µM): 0.838
viability ([5]; 0.12 µM): 0.868
viability ([5]; 0.6 µM): 0.907
viability ([5]; 3 µM): 0.931
viability ([5]; 15 µM): 0.733
viability (Venetoclax; 0.00064 µM): 0.916
viability (Venetoclax; 0.0032 µM): 0.657
viability (Venetoclax; 0.016 µM): 0.437
viability (Venetoclax; 0.08 µM): 0.259
viability (Venetoclax; 0.4 µM): 0.181
